System: drug-resistant Mycobacterium tuberculosis
Conditions: 5 micrograms per ml

C[C@@H](O)[C@@H]1NC(=O)[C@H](CCCCN)NC(=O)[C@@H](Cc2c[nH]c3ccccc23)NC(=O)[C@H](Cc2ccccc2)NC(=O)[C@@H](NC(=O)[C@H](N)Cc2ccccc2)CSSC[C@@H](C(=O)N[C@H](CO)[C@@H](C)O)NC1=O [Octreotide, H-D-Phe-Cys-Phe-D-Trp-Lys-Thr-Cys-L-threoninol]
% inhibition: 100.0%
